This is an account of results in patent US20190151294A1, “TREATMENT OF ALCOHOLISM AND DEPRESSION AND/OR DYSPHORIC MOOD USING IBUDILAST” (MEDICINOVA, INC., priority 2016, published 2019).

The subject of data set [1] is alcohol-preferring (P) rats. Kind of data set: Voluntary ethanol consumption in alcohol-preferring (P) rats. The format is in vivo, rat. Particulars: for dose dependence of effect on ethanol intake (2-way mixed ANOVA): p<0.001. Here is the method: To perform the study, adult male P and HAD1 rats were randomly assigned to receive one of the following four doses of ibudilast—0 mg/Kg, 3 mg/Kg, 6 mg/Kg, or 9 mg/Kg with eight rats assigned to each dose. Each dosing group was balanced to average a 2 h/day ethanol (15% v/v) intake. Water was concurrently available to the rats and Mazola corn oil was used as the vehicle.
The study was divided into four test phases. In the maintenance test phase rats in the treatment group were injected ibudilast subcutaneously (2 mL/kg s.c.), using standard solutions that deliver 3 mg/Kg, 6 mg/Kg or 9 mg/Kg of ibudilast, 60 min before each ethanol test session and the same dose of ibudilast was administered subcutaneously to the rats 8 hours later. Rats in the control group, however, are administered 2 mL/Kg Mazola corn oil subcutaneously. This protocol was carried out for 4 consecutive days. Following the maintenance test phase, is a two week no drug recovery phase during which rats are permitted access to ethanol and the amount of ethanol consumed by the rats was measured.
The recovery phase is followed by a two week forced ethanol abstinence phase. Following forced abstinence, the effects of ibudilast on ethanol drinking were examined by re-introducing ethanol to rats for a period of 5 consecutive days (i.e., the Relapse Test phase). Each animal received the same dose of ibudilast during maintenance and relapse test phases.

For data set [2], the system named is non-treatment-seeking individuals with AUD. The data set can be described thus: Phase 1b study: stress reactivity assessment (SR). The format is in vivo, human. As to conditions: 50 mg BID. From the text:
Personal information collected at the time of admission (day 1) to the CRTC was used to generate personalized scripts of neutral and stressful conditions. Participants were asked to identify a recent stressful experience and to rate them on a 0 to 10 Likert scale, where a rating of 10 is considered to be the most stressful experience. Only stressful events rated≥8 were used in script development. Data on physical symptoms associated with the stressful and neutral events were also collected for script development.
During the study, each exposure consisted of 5-minute tape-recorded scripts recounting the recent stressful (or neutral) events in the participants' lives, including cognitions and physical feelings. […]
The following measures of mood, urge to drink, and physiological reactivity were administered at baseline and post-imagery for both the stress and neutral conditions: (1) The Profile of Mood States, Short Version (POMS) collected data on (a) positive and negative mood; (2) The Alcohol Urge Questionnaire (AUQ) measured subjective levels of alcohol cravings at the present moment (i.e., following stress imagery); (3) Cortisol levels were assessed by collecting saliva samples and heart rate and blood pressure were measured using a Dynamap Adult Vital Signs Monitor. […]

In the next data set the test system is C57BL/6J mice. Kind of data set: Chronic intermittent ethanol (CIE) exposure mouse model of ethanol dependence. It counts as in vivo. Here is the method:
Briefly, mice were divided into test (ethanol dependent) and control (non-ethanol dependent) groups. Mice in the former group were exposed to chronic intermittent ethanol (CIE) vapor (16 hr/day×4 days), and then forced to abstain from alcohol for 72 hours. Mice were then permitted access to ethanol for 2 h/day for a 5-day test period. This pattern of weekly CIE exposures followed by 5-day test periods was repeated for 9 cycles. Mice in the control group were treated in the same manner, except these animals were exposed to air rather than ethanol vapors. Mice from both groups were further divided into four sub-groups with animals receiving 0 mg/Kg, 3 mg/Kg, 6 mg/Kg or 12 mg/Kg dose of ibudilast.
In a separate study, adult male C57BL/6J mice were used to evaluate ibudilast as a therapeutic for the treatment of alcohol dependence. Two groups of mice were used for the study. Mice in the first group were trained to drink ethanol using a 2 h/day free-choice (15% v/v ethanol) drinking procedure (ethanol dependent (EtOH) mice), while mice in the second group were provided water and served a control (ethanol nondependent (CTL)) mice. Both the ethanol dependent and ethanol non-dependent groups had equal number of mice (N=37-38/group).
Mice in the alcohol dependent group were then exposed to chronic intermittent ethanol (CIE) vapors for 16 hr/day over four days. After a 72 hours forced abstinence period, the ethanol dependent mice were again permitted access to ethanol for 2 hours each day over a 5 consecutive test days. This pattern of chronic intermittent ethanol vapor exposure for four consecutive days followed by forced abstinence and a five day ethanol access test period was repeated for 9 cycles. Mice in the control (CTL) group were treated in a similar manner except that air was used in the inhalation chambers in place of ethanol vapors.
Both control and ethanol dependent mice received subcutaneous (s.c.) injections of the vehicle at 9 hours and 1 hour prior to the start of daily drinking sessions during Test Cycles 4, 5 and 6 to acclimate the animals to handling and administration of injections.
At the end of test cycle 6, mice in the ethanol dependent group and the control group were separated into four sub-groups with animals receiving one of four doses of ibudilast—0 mg/Kg, 3 mg/Kg, 6 mg/Kg or 12 mg/Kg during Test Cycles 7 and 8. Each sub-group contained 9-10 mice (N=9-10/group). The dose of ibudilast was increased during Test Cycle 9 with ethanol dependent and control mice receiving one of the following four doses of ibudilast—0 mg/Kg, 6 mg/Kg, 12 mg/Kg, or 18 mg/Kg. Thus, mice previously receiving a dose of […] were administered ibudilast at a dose of 18 mg/Kg during Test Cycle 9.

For `CC(C)C(=O)c1c(C(C)C)nn2ccccc12` [ibudilast, Ibudilast], the “reduction of ethanol intake” value in data set [1] (5-day Relapse Test phase) is “about 50%”; in data set [1] (maintenance test phase, 4 days, s.c. twice daily, vs vehicle) it was “approximately 50%”. Moreover, the “ethanol drinking relative to controls” value in data set [1] (Relapse Test phase, 6 mg/Kg and 9 mg/Kg doses, p<0.05) is given as “significantly reducing ethanol drinking relative to controls”. The “dose dependence of effect on ethanol intake (2-way mixed ANOVA)” value is “dose dependent reduction in ethanol intake” in data set [1] (Relapse Test phase) and “dose dependent reduction of ethanol intake” in data set [1] (maintenance test phase, 0, 3, 6, 9 mg/Kg). In addition, in data set [1] (especially at the 9 mg/Kg dose, effect diminished over the 5-day test phase), the 24-hour food intake entry is “transitory reductions”. Also, in data set [1] (p<0.001, data not shown), the “time course of reduced ethanol intake (Dose x Day interaction)” value is recorded as “most robust on the first day”. Also, in data set [2] (day 5 stress-exposure), the “stress-induced AUQ craving” value is listed as “did not affect”. In data set [2] (p<0.05, FIG. 6), the “positive mood during stress procedures” value is “increased positive mood”. Moreover, the “ethanol intake of alcohol dependent mice vs control group counterparts” value with C57BL/6J mice (6 mg, Test Cycle 9, p<0.05) is reported as “consumed significantly more ethanol”. Besides, the “difference in ethanol intake between alcohol dependent and control mice” value with C57BL/6J mice (12 mg/Kg and 18 mg/Kg, Test Cycle 9) is “no significant difference”. In the data set with C57BL/6J mice (12 mg/Kg and 18 mg/Kg, Test Cycle 9, p<0.01), the “reduction of ethanol intake, alcohol dependent vs control mice (Group x Dose interaction)” value is reported as “more effective at reducing ethanol intake in alcohol dependent mice than control mice”. Besides, the ethanol intake entry with C57BL/6J mice (12 mg/Kg s.c., alcohol dependent mice, before Test Cycle 8 (FIG. 2)) is reported as “reduced ethanol in alcohol dependent mice”. For the same molecule, in the data set on C57BL/6J mice (12 mg/Kg, Test Cycle 8, both alcohol dependent and control mice, p<0.05), the “ethanol consumption relative to vehicle” value is reported as “reduced ethanol consumption to a greater extent”. The concurrent water intake entry in the data set with C57BL/6J mice (associated with decreased ethanol intake) is reported as “significant increases”. For the same molecule, the “ethanol intake of test (ethanol dependent) group vs control group” value with C57BL/6J mice (at the higher doses (FIG. 2)) is recorded as “below those for mice in the control group”.
